Results published in ChEMBL document CHEMBL3243967, “Potential antitumor agents. 25. Azalogues of the 4'-(9-acridinylamino) methanesulfonanilides” (J Med Chem, 1977).

Legend:
[1] = Toxicity in ip dosed mouse allografted with mouse L1210 cells administered qd from day 1 to 5 of challenge; type: organism-based; conditions: in vivo
[2] = Ionization constant, pKa of the compound in 20% DMF-buffer mixture by UV spectrophotometry; type: physicochemical
[3] = Lipophilic-hydrophilic balance, Rm of the compound by reversed-phase partition chromatography; type: physicochemical
L1210 [4] = experiment: Antitumor activity against mouse L1210 cells allografted in ip dosed mouse assessed as increase in life span at optimal dose administered qd from day 1 to 5 of challenge relative to control; type: functional
L1210 [5] = experiment: Antitumor activity against mouse L1210 cells allografted in ip dosed mouse assessed as dose required for maximum increase in life span administered qd from day 1 to 5 of challenge; type: functional
[6] = Ionization constant, pKa of the compound at pH 7.4; type: physicochemical

SMILES | MTD [1] [mg/kg] | pKa [2] | Rm [3] | Increase in life span (L1210 [4]) [%] | Activity (L1210 [5]) [mg/kg] | pKa [6]
CS(=O)(=O)Nc1ccc(Nc2c3ccccc3nc3c([N+](=O)[O-])cccc23)cc1 | > 500 | 4.88 | -0.17 |  |  | 
CS(=O)(=O)Nc1ccc(Nc2c3ccccc3nc3ncccc23)cc1 | > 500 | 5.93 | -0.27 |  |  | 
CS(=O)(=O)Nc1ccc(Nc2c3ccccc3nc3cccnc23)cc1 | > 500 | 6.9 | -0.56 |  |  | 
CS(=O)(=O)Nc1ccc(Nc2c3ccccc3nc3cccc([N+](=O)[O-])c23)cc1 | 75 | 4.79 | -0.09 |  |  | 
COc1cc(Nc2c3ccccc3nc3c([N+](=O)[O-])cccc23)ccc1NS(C)(=O)=O |  | 5.05 | 0.09 | 38 | 75 | 
CS(=O)(=O)Nc1ccc(Nc2c3ccccc3nc3cc([N+](=O)[O-])ccc23)cc1 |  | 5.52 | -0.17 | 123 | 25 | 
CS(=O)(=O)Nc1ccc(Nc2c3ccccc3nc3ccncc23)cc1 | > 500 | 5.73 | -0.39 |  |  | 
CS(=O)(=O)Nc1ccc(Nc2c3ccc([N+](=O)[O-])cc3nc3cc([N+](=O)[O-])ccc23)cc1 |  |  |  |  |  | 3.68
COc1cc(Nc2c3ccccc3nc3cccnc23)ccc1NS(C)(=O)=O | 220 | 7.19 | -0.39 |  |  | 
COc1cc(Nc2c3ccccc3nc3ccncc23)ccc1NS(C)(=O)=O | 500 | 5.84 | -0.25 |  |  | 
COc1cc(Nc2c3ccccc3nc3cnccc23)ccc1NS(C)(=O)=O |  | 5.53 | -0.13 | 88 | 90 | 
COc1cc(Nc2c3ccccc3nc3ncccc23)ccc1NS(C)(=O)=O |  | 6.09 | -0.07 | 89 | 62 | 
COc1cc(Nc2c3ccccc3nc3cccc([N+](=O)[O-])c23)ccc1NS(C)(=O)=O |  | 4.98 | -0.01 | 44 | 180 | 
COc1cc(Nc2c3ccccc3nc3ccc([N+](=O)[O-])cc23)ccc1NS(C)(=O)=O | > 500 | 5.63 | -0.06 |  |  | 
COc1cc(Nc2c3ccccc3nc3cc([N+](=O)[O-])ccc23)ccc1NS(C)(=O)=O |  | 5.72 | 0.11 | 84 | 4.5 | 
CS(=O)(=O)Nc1ccc(Nc2c3ccccc3nc3ccc(N)cc23)cc1 |  | 7.15 | -0.31 | 78 | 25 | 
CS(=O)(=O)Nc1ccc(Nc2c3ccccc3nc3ccc([N+](=O)[O-])cc23)cc1 |  | 5.42 | -0.21 | 27 | 250 | 
CS(=O)(=O)Nc1ccc(Nc2c3ccccc3nc3cnccc23)cc1 | > 500 | 5.32 | -0.33 |  |  | 
CS(=O)(=O)Nc1ccc(Nc2c3ccccc3nc3cc(N)ccc23)cc1 |  | 9.8 | -0.17 | 81 | 2.5 | 
CS(=O)(=O)Nc1ccc(Nc2c3ccccc3nc3ccccc23)cc1 |  |  | 0 | 107 | 45 | 
